Source: US6784167B2, “17-beta-hydroxysteroid dehydrogenase-II inhibitors” (Bayer Pharmaceuticals Corporation, priority 2000, dated 2004)
Read-outs that look alike come from different tables or passages of the source.

What was measured:
[1] = target: T1, 17-Beta HSD II Enzyme (Homo sapiens, UniProt P37059); assay: Primary assay: inhibition of 17-Beta HSD II enzyme (estradiol/NAD, PMS:MTS colorimetric readout at 490 nm); assay type: biochemical; details: Table 7, baculovirus-expressed recombinant HSD II, estradiol substrate
T1 construct: made in house; host or cells: insect cells (baculovirus)
T1 sequence (P37059 1-387): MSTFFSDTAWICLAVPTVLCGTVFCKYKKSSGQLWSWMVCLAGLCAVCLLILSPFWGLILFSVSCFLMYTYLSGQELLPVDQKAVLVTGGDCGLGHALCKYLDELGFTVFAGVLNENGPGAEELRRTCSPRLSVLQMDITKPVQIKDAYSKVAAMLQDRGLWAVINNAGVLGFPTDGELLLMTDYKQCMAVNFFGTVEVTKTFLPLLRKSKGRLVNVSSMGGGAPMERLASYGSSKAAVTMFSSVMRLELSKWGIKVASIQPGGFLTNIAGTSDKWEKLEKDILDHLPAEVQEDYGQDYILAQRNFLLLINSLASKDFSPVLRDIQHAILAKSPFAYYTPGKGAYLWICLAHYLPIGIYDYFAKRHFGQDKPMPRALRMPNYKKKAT
Protocol: HSD II protein purification: The method for purification of baculovirus-expressed HSD II was standardized as follows. The insect cell pellet containing recombinant HSD II was lysed in 2.5 volumes of lysis buffer (40 mM Tris, pH 7.5, 1 mM EDTA, 2 mM DTT, 10 uM NAD) containing 500 uM AEBSF, 10 ug/ml aprotinin, 1 uM pepstatin A, and 100 uM leupeptin. The pellet was nutated for 30 min in this buffer. Subsequently, the pellet was homogenized with 15 strokes using a glass and teflon potter. The volume was doubled with a 2× sucrose/NaCl solution (500 mM sucrose, 300 mM NaCl in lysis buffer). After centrifugation at 10,000×g for 30 min, the supernatant was decanted and stored at −20° C. The pellet was resuspended in 2.5 volumes of lysis buffer containing 250 mM sucrose and 150 mM NaCl. Homogenization was repeated (15 strokes) and the suspension was centrifuged again and the decanted supernatant was stored at −20° C. The pellet was resuspended with 2 times the original pellet volume in lysis buffer containing 150 mM NaCl and 1% Triton X-100. The suspension was nutated for 20 min and then homogenized with 5 strokes. Subsequently, the suspension was centrifuged at 30,000×g for 1 h and supernatant was decanted and poured into a chromatographic column. Sephadex G-25 (fine) was added in small amounts, allowing approximately 15 min after each addition for complete swelling. Sephadex addition was continued until all liquid was absorbed. The protein was eluted with 1 void volume of lysis buffer and eluate monitored at 280 nm optical density. The chromatographic procedure was repeated and an equal volume of glycerol was added to the final eluate.
Primary assay: After titration, the HSD II prep, generated with the standard protocol, was diluted to the appropriate concentration (generally 1/15 dilution). 55 μl of assay buffer (50 mM Hepes, pH 8.0) was added to all wells of a 96 well plate. 5 μl of 5% DMSO were added to wells A1-C1, A2-C2, F1-H1, and F2-H2. A 10 μl aliquot of a 10 mM solution in DMSO of each compound was diluted in 190 μl of assay buffer. The plate with these compound dilutions was then mixed for 15 min on a shaker and a 5 μl aliquot from each well was added to the […]. This was followed by 10 μl of HSD II enzyme ( 1/15 dilution)/estradiol mix in assay buffer containing 1% Triton X-100. The estradiol […] from a 20 mM estradiol DMSO stock solution, which was diluted 1/20 (50 μl/ml) in 50 mM Hepes buffer containing 1% Triton X-100. All wells, except F1-H1 and F2-H2, also received 10 μl of 25 mg/ml NAD (SIGMA) in 100 mM Hepes, pH 9. The blank wells F1-H1 and F2-H2 received 10 μl of NAD buffer. 20 μl of PMS:MTS solution (100 μl PMS into 1800 μl MTS, Promega) was added to all wells. The plate was covered with aluminum foil and incubated at room temperature for 1.5 h. The plate was analyzed at 490 nm on a Hewlett Pachard 8453 spectrophotometer and results were calculated.

[2] = read-out: IC50 values ≧2 μM and <10 μM

melting point	IC50 [1, 2]	IC50 [1]	SMILES
183 °C	2000 to 10000 nM	–	CN1C(=O)C[C@H](c2ccccc2)[C@@H]1[C@H](O)c1cccc(-c2cccc([N+](=O)[O-])c2)c1 (racemic) [Example 106]
194 °C	2000 to 10000 nM	–	CN1C(=O)C[C@H](c2ccccc2)[C@@H]1[C@H](O)c1ccc(-c2ccc(C(=O)O)cc2)o1 (racemic) [Example 118]
85 °C	–	< 500 nM	Cc1cc(-c2ccccc2)c([C@@H](O)[C@H]2[C@@H](c3ccccc3)CC(=O)N2C)s1 (racemic) [Example 43]
175 to 176 °C	–	< 500 nM	Cc1ccc(C)n1-c1cccc(C#C[C@@H](O)[C@H]2[C@@H](c3ccccc3)CC(=O)N2C)c1 (racemic) [Example 131]
183 °C	2000 to 10000 nM	–	CSc1ccc(-c2ccc([C@@H](O)[C@H]3[C@@H](c4ccccc4)CC(=O)N3C)o2)cc1 (racemic) [Example 116]
150 °C	–	< 500 nM	CN1C(=O)CC(c2ccccc2)C1C(O)c1ccc(-c2cccc([N+](=O)[O-])c2)s1 (racemic) [Example 44]
210 °C	2000 to 10000 nM	–	CN1C(=O)C[C@H](c2ccccc2)[C@@H]1[C@H](O)c1cccc(-c2ccc(F)cc2)c1 (racemic) [Example 104]
216 °C	–	< 500 nM	CN1C(=O)C[C@H](c2ccccc2)[C@@H]1[C@H](O)c1ccc(-c2ccccc2F)s1 (racemic) [Example 71]
138 to 140 °C	–	< 500 nM	CN1C(=O)C[C@H](c2ccccc2)[C@@H]1[C@H](O)c1ccc(-c2ccc[n+]([O-])c2)s1 [Example 26, (4R,5R)-5-{(S)-hydroxy[5-(1-oxido-3-pyridinyl)-2-thienyl]methyl}-1-methyl-4-phenyl 2-pyrrolidinone]
167 to 175 °C	–	< 500 nM	CN1C(=O)CC(c2ccccc2)C1C(O)c1ccc(S(=O)(=O)N2CCN(c3ccc(F)cc3)CC2)s1 (racemic) [Example 37]
129 to 130 °C	2000 to 10000 nM	–	CN1C(=O)C[C@H](c2ccccc2)[C@@H]1[C@H](OCc1ccccc1)c1cccs1 [Example 140]
193 to 195 °C	–	< 500 nM	CN1C(=O)CC(c2ccccc2)C1C(O)c1ccc(Cl)c(Cl)c1 (centres unmarked) [Example 99]
217 to 218 °C	2000 to 10000 nM	–	CN1C(=O)C[C@H](c2ccccc2)[C@@H]1[C@H](O)C#CCN1CCS(=O)(=O)CC1 (racemic) [Example 130]
217 to 218 °C	2000 to 10000 nM	–	CN1C(=O)C[C@H](c2ccccc2)[C@@H]1[C@H](O)C#Cc1ccc(-c2ccccc2)cc1 (racemic) [Example 136]
187 °C	–	< 500 nM	C#Cc1ccc([C@@H](O)[C@H]2[C@@H](c3ccccc3)CC(=O)N2C)s1 (relative stereo) [Example 23, (±)-(4R*,5R*)-5-[(1S*)(5-ethynyl(2-thienyl))hydroxymethyl]-1-methyl-4-phenylpyrrolidin-2-one]
234 °C (dec.)	–	< 500 nM	CN1C(=O)CC(c2ccccc2)C1C(O)c1ccc(-c2ccccn2)s1 (centres unmarked) [Example 50]
219 to 220 °C (dec.)	–	< 500 nM	CN1C(=O)C[C@H](c2ccccc2F)[C@@H]1[C@H](O)c1ccc(-c2ccccc2)s1 (racemic) [Example 83]
203 to 205 °C	–	< 500 nM	COc1ccc(S(=O)(=O)c2ccc([C@@H](O)[C@H]3[C@@H](c4ccccc4)CC(=O)N3C)s2)cc1 (racemic) [Example 58]
146 °C	–	< 500 nM	CN1C(=O)CC(c2ccccc2)C1C(O)c1ccc(-c2ccc(C#N)cc2)s1 (centres unmarked) [Example 80]
189 °C	2000 to 10000 nM	–	CN1C(=O)CC(c2ccccc2)C1C(O)Cc1nc(-c2ccccc2)cs1 (centres unmarked) [Example 138]

melting point	IC50 [1, 2]	IC50 [1]	SMILES
187 °C	2000 to 10000 nM	–	CSc1ccc(-c2ccc([C@@H](O)[C@H]3[C@@H](c4ccccc4)CC(=O)N3C)s2)cc1 (racemic) [Example 69]
101 to 102 °C	2000 to 10000 nM	–	CO[C@H](c1cccs1)[C@H]1[C@@H](c2ccccc2)CC(=O)N1C (relative stereo) [Example 12, (±)-(4R*,5R*)-5-((1S*)-methoxy-2-thienylmethyl)-1-methyl-4-phenylpyrrolidin-2-one]
210 °C	–	< 500 nM	CN1C(=O)CC(c2ccccc2)C1C(O)c1ccc(-c2cccnc2)s1 (racemic) [Example 78]
123 to 125 °C	–	< 500 nM	CN1C(=O)CC(c2ccccc2)C1C(O)c1ccc(CCc2ccc(F)cc2)s1 (centres unmarked) [Example 57]
212 °C	–	< 500 nM	CN1C(=O)C[C@H](c2ccccc2F)[C@@H]1[C@H](O)c1cccs1 [Example 150]
195 to 197 °C	–	< 500 nM	CN1C(=O)C[C@H](c2ccccc2F)[C@@H]1[C@H](O)c1ccc(-c2cccnc2)s1 [Example 151]
213 to 215 °C	–	< 500 nM	CN1C(=O)C[C@H](c2ccccc2F)[C@@H]1[C@H](O)c1ccc(-c2ccccn2)s1 [Example 153]
> 210 °C	2000 to 10000 nM	–	CN1C(=O)C[C@H](c2ccccc2)[C@@H]1[C@H](O)c1csc2ccccc12 (racemic) [Example 54]
76 to 78 °C	2000 to 10000 nM	–	CN1C(=O)C[C@H](c2ccccc2)[C@@H]1[C@H](OCCCc1ccccc1)c1cccs1 [Example 141]
214 to 218 °C	–	< 500 nM	CN1C(=O)CC(c2ccccc2)C1C(O)c1ccc(S(=O)(=O)N2CCOCC2)s1 (centres unmarked) [Example 36]
184 °C	2000 to 10000 nM	–	CN1C(=O)CC(c2ccccc2)C1C(O)c1ccc(-c2ccccc2)o1 (centres unmarked) [Example 117]
172 °C	–	< 500 nM	CN1C(=O)CC(c2ccccc2)C1C(O)c1ccc(Sc2ccccc2)s1 (centres unmarked) [Example 66]
173 to 176 °C	–	< 500 nM	CN1C(=O)C[C@H](c2ccccc2)[C@@H]1[C@H](O)c1cccc(-c2ccccc2)c1 (racemic) [Example 98]
192 °C	–	< 500 nM	CN1C(=O)C[C@H](c2ccccc2)[C@@H]1[C@H](O)c1ccc(-c2ccccc2C(F)(F)F)s1 (racemic) [Example 34]
180 °C	2000 to 10000 nM	–	CN1C(=O)CC(c2ccccc2)C1C(O)c1ccc(-c2cccc(F)c2)o1 (centres unmarked) [Example 122]
154 to 156 °C	–	< 500 nM	CN1C(=O)CC(c2ccccc2)C1C(O)C#Cc1ccc(F)cc1 (centres unmarked) [Example 124]
187 °C	2000 to 10000 nM	–	Cc1ccc(-c2ccc(C(O)C3C(c4ccccc4)CC(=O)N3C)o2)cc1 (centres unmarked) [Example 115]
195 °C	–	< 500 nM	CN1C(=O)C[C@H](c2cccc(F)c2)[C@@H]1[C@H](O)c1ccc(-c2ccc(F)cc2)s1 (racemic) [Example 85]
220 °C	–	< 500 nM	COc1ccccc1C1CC(=O)N(C)C1C(O)c1ccc(S(=O)(=O)c2ccc(Cl)cc2)s1 (centres unmarked) [Example 92]
232 °C	–	< 500 nM	CN1C(=O)C[C@H](c2ccccc2F)[C@@H]1[C@H](O)c1ccc(S(=O)(=O)c2ccccc2)s1 (racemic) [Example 89]
